Experimental data reported in patent publication US20230219969A1 (priority 2020, published 2023).
Where two headings read alike, the source gives them in different places.

Key:
[1] = biological target: T1, 5HT2A (Homo sapiens, UniProt P28223); test: Serotonin 5-HT2A in vitro cellular IPOne agonism assay; type: cell-based; parameters: host or cells: CHO-K1
Procedure: Serotonin 5-HT2A In Vitro Cellular IPOne Agonism Assay. The 5-HT2A IPOne HTRF assay was performed at Epics Therapeutics S.A. (Belgium, FAST-0505I) using conventional methods. Briefly, CHO-K1 cells expressing human recombinant 5-HT2A receptor grown to mid-log phase in culture media without antibiotics were detached with PBS-EDTA, centrifuged, and resuspended in medium without antibiotics buffer. 20,000 cells are distributed in a 96 well plate and incubated overnight at 37° C. with 5% CO2.
For agonist testing, the medium is removed and 20 μl of assay buffer plus 20 μl of test compound or reference agonist are added in each well. The plate is incubated for 60 min. at 37° C. with 5% CO2.
After addition of the lysis buffer containing IP1-d2 and anti-IP1 cryptate detection reagents, plates are incubated 1-hour at room temperature, and fluorescence ratios are measured according to the manufacturer specification, with the HTRF kit.
(§1) The compounds provided herein were tested in the Serotonin 5-HT2A and 5-HT2C in vitro radioligand binding and cellular IPOne agonism assays. The binding and agonism functional potencies of several compound provided herein compounds (as indicated by their IC50s or EC50s) are shown in Table 11.

[2] = biological target: T1, 5HT2A; test: Serotonin 5-HT2A in vitro radioligand binding competition assay ([3H]-DOI); parameters: purchased Epics Therapeutics S.A. (Belgium) FAST-0505B
Procedure: Serotonin 5-HT2A In Vitro Radioligand Binding Competition Assay. The 5-HT2A radioligand binding competition assay was performed at Epics Therapeutics S.A. (Belgium, FAST-0505B) using conventional methods. Briefly, competition binding is performed in duplicate in the wells of a 96 well plate (Master Block, Greiner, 786201) containing binding buffer (optimized for each receptor), membrane extracts (amount of protein/well optimized for each receptor), radiotracer [^3H]-DOI (final concentration optimized for each receptor) and test compound. Nonspecific binding is determined by co-incubation with 200-fold excess of cold competitor. The samples are incubated in a final volume of 0.1 ml at a temperature and for a duration optimized for each receptor and then filtered over filter plates. Filters are washed six times with 0.5 ml of ice-cold washing buffer (optimized for each receptor) and 50 μl of Microscint 20 (Packard) are added in each well. The plates are incubated 15 min on an orbital shaker and then counted with a TopCount™ for 1 min/well.
as §1

[3] = CHO-K1 cells, IPOne HTRF, read-out: 5-HT2A IPOne Agonism Activity
[4] = [3H]-DOI competition, membrane extracts, read-out: 5-HT2A Radioligand Binding Activity

T1 sequence (P28223 whole entry): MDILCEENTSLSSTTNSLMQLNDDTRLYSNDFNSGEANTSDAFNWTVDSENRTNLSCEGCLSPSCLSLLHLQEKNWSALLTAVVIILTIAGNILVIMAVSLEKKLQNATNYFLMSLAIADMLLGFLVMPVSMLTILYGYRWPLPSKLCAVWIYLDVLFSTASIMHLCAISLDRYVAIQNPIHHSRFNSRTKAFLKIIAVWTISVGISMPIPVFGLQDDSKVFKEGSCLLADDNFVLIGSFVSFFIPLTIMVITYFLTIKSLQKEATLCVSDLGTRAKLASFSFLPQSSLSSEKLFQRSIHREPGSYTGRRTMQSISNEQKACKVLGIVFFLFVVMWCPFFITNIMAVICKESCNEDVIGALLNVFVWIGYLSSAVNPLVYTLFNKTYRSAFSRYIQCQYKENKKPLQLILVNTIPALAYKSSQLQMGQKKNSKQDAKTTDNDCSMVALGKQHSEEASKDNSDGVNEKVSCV

Compound | EC50 [1, 3] [µM] | IC50 [2, 4] [µM] | EC50 [1] [µM] | IC50 [2] [µM]
COc1ccc2c(c1)CN(CCN(C)C)C2 [Example 10, 2-(5-methoxyisoindolin-2-yl)-N,N-dimethylethan-1-amine] | > 10 | 1 to 10 |  | 
COc1ccc2c(c1)CCN(CCN(C)C)C2 [Example 11, 2-(6-methoxy-3,4-dihydroisoguinolin-2(1H)-yl)-N,N-dimethylethan-1-amine] | > 10 | 0.101 to 1 |  | 
CN(C)C(C)(C)Cn1ccc2c(F)c(F)ccc21 [Example 12, 1-(4,5-difluoro-1H-indol-1-yl)-N,N,2-trimethylpropan-2-amine] | > 10 | > 10 |  | 
Cc1cn(CC(C)(C)N(C)C)c2ccc(F)cc12 [Example 13, 1-(5-fluoro-3-methyl-1H-indol-1-yl)-N,N,2-trimethylpropan-2-amine] | 1 to 10 | > 10 |  | 
CN(C)C(C)(C)Cn1ccc2cc(F)ccc21 [Example 14, 1-(5-fluoro-1H-indol-1-yl)-N,N,2-trimethylpropan-2-amine] | > 10 | > 10 |  | 
COc1ccc2c(ccn2CC(C)(C)N(C)C)c1F [Example 15, 1-(4-fluoro-5-methoxy-1H-indol-1-yl)-N,N,2-trimethylpropan-2-amine] | > 10 | > 10 |  | 
COc1cc2ccn(CC(C)(C)N(C)C)c2cc1F [Example 16, 1-(6-fluoro-5-methoxy-1H-indol-1-yl)-N,N,2-trimethylpropan-2-amine] | > 10 | > 10 |  | 
COc1cc(F)c2c(ccn2CC(C)(C)N(C)C)c1 [Example 17, 1-(7-fluoro-5-methoxy-1H-indol-1-yl)-N,N,2-trimethylpropan-2-amine] | > 10 | > 10 |  | 
CN(C)C(C)(C)Cn1ccc2c(F)cccc21 [Example 18, 1-(4-fluoro-1H-indol-1-yl)-N,N,2-trimethylpropan-2-amine] | > 10 | > 10 |  | 
CN(C)C(C)(C)Cn1ccc2ccc(F)cc21 [Example 19, 1-(6-fluoro-1H-indol-1-yl)-N,N,2-trimethylpropan-2-amine] | > 10 | > 10 |  | 
CN(C)C(C)(C)Cn1ccc2cccc(F)c21 [Example 20, 1-(7-fluoro-1H-indol-1-yl)-N,N,2-trimethylpropan-2-amine] | > 10 | > 10 |  | 
COc1ccc2c(ccn2CC(C)(C)N(C)C)n1 [Example 21, 1-(5-methoxy-1H-pyrrolo[3,2-b]pyridin-1-yl)-N,N,2-trimethylpropan-2-amine] | > 10 | > 10 |  | 
COc1cc2ccn(CC(C)(C)N(C)C)c2cn1 [Example 22, 1-(5-methoxy-1H-pyrrolo[2,3-c]pyridin-1-yl)-N,N,2-trimethylpropan-2-amine] | > 10 | > 10 |  | 
COc1ncc2c(ccn2CC(C)(C)N(C)C)n1 [Example 23, 1-(2-methoxy-5H-pyrrolo[3,2-d]pyrimidin-5-yl)-N,N,2-trimethylpropan-2-amine] | > 10 | > 10 |  | 
C[C@@H](N)Cn1ccc2cncnc21 [Example 26, (R)-1-(7H-pyrrolo[2,3-d]pyrimidin-7-yl)propan-2-amine] | 1 to 10 | > 10 |  | 
COc1cnc2c(ccn2C[C@@H](C)N)c1 [Example 34, (R)-1-(5-methoxy-1H-pyrrolo[2,3-b]pyridin-1-yl)propan-2-amine] | 1 to 10 | > 10 |  | 
CN[C@H](C)Cn1ccc2cc(OC)cnc21 [Example 35, (R)-1-(5-methoxy-1H-pyrrolo[2,3-b]pyridin-1-yl)-N-methylpropan-2-amine] | > 10 | > 10 |  | 
C[C@@H](N)Cn1ccc2cnccc21 [Example 37, (R)-1-(1H-pyrrolo[3,2-c]pyridin-1-yl)propan-2-amine] | > 10 | > 10 |  | 
CN[C@H](C)Cn1ccc2cnccc21 [Example 38, (R)—N-methyl-1-(1H-pyrrolo[3,2-c]pyridin-1-yl)propan-2-amine] | > 10 | > 10 |  | 
Cc1cn(CC(C)(C)N)c2ccc(F)cc12 [Example 40, 1-(5-fluoro-3-methyl-1H-indol-1-yl)-2-methylpropan-2-amine] | 1 to 10 | 1 to 10 |  | 
CC(C)(N)Cn1ccc2c(F)c(F)ccc21 [Example 41, 1-(4,5-difluoro-1H-indol-1-yl)-2-methylpropan-2-amine] | 1 to 10 | 1 to 10 |  | 
COc1ccc2c(ccn2CC(C)(C)N)c1 [Example 42, 1-(5-methoxy-1H-indol-1-yl)-2-methylpropan-2-amine] | 1 to 10 | > 10 |  | 
CN(C)CC(=O)n1ccc2cc(F)ccc21 [Example 43, 2-(dimethylamino)-1-(5-fluoro-1H-indol-1-yl)ethan-1-one] | > 10 | > 10 |  | 
CN(C)CC(=O)n1ccc2ccccc21 [Example 44, 2-(dimethylamino)-1-(1H-indol-1-yl)ethan-1-one] | > 10 | > 10 |  | 
C[C@H](C(=O)n1ccc2ccccc21)N(C)C [Example 46, (R)-2-(dimethylamino)-1-(1H-indol-1-yl)propan-1-one] |  |  | > 10 | > 10
C[C@H](C(=O)n1ccc2cc(F)ccc21)N(C)C [Example 48, (R)-2-(dimethylamino)-1-(5-fluoro-1H-indol-1-yl)propan-1-one] |  |  | > 10 | > 10
